Reference: ChEMBL document CHEMBL3576802 (J Med Chem, 2015)
Values belong to the compound of their own block, whether it stands above or below them. Where a SMILES comes first, the peptide text is derived from it. Bridges are numbered along the chain shown (N, C = ends). [ ]: non-standard residue; d: D form. Bip = N[C@@H](Cc1ccc(-c2ccccc2)cc1)C(=O)O; 1Nal = N[C@@H](Cc1cccc2ccccc12)C(=O)O

Columns and labels:
Assay type in all cases: cell-based; call rule not given here
[1] = biological target: Melanocyte-stimulating hormone receptor (Mus musculus) (UniProt Q01727); test: Agonist activity at mouse MC1R expressed in HEK293 cells at 100 uM by cAMP functional bioassay
Chain of Melanocyte-stimulating hormone receptor (Mus musculus) (Q01727 whole entry, looked up): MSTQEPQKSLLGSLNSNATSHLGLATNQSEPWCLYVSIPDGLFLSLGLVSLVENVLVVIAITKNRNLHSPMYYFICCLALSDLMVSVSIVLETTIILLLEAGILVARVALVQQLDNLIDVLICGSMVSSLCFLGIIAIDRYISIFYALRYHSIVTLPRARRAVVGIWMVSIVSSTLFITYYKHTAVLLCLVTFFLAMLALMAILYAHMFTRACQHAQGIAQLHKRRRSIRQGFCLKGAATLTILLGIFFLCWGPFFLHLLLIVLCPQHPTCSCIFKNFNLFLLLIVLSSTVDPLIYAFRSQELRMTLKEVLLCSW

[2] = biological target: Melanocortin receptor 3 (Mus musculus, UniProt P33033); test: Displacement of MTII from mouse MC3R expressed in HEK293 cells; details: for Kb: read-out: pA2 (converted)
Chain of Melanocortin receptor 3 (P33033 whole entry): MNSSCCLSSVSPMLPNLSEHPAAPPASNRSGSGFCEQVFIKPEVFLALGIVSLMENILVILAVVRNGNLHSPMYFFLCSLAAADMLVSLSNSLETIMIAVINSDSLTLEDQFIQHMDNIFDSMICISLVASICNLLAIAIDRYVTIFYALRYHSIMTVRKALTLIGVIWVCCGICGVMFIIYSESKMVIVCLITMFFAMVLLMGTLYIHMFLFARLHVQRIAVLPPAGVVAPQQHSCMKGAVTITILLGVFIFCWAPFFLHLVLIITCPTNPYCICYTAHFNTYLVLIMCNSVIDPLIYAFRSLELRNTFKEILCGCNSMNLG

[3] = biological target: Melanocortin receptor 4 (Mus musculus, UniProt P56450); test: Displacement of MTII from mouse MC4R expressed in HEK293 cells; details: for Kb: read-out: pA2 (converted)
Chain of Melanocortin receptor 4 (P56450 whole entry): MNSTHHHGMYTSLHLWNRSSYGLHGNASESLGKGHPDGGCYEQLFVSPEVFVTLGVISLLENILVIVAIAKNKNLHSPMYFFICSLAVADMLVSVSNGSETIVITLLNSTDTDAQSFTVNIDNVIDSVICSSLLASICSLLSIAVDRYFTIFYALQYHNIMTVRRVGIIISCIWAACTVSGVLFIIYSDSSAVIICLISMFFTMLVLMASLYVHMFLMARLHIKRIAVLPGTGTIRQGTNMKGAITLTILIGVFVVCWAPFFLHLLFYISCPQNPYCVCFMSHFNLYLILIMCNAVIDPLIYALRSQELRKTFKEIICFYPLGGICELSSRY

[4] = biological target: Melanocyte-stimulating hormone receptor (Mus musculus, UniProt Q01727); test: Agonist activity at mouse MC1R expressed in HEK293 cells by cAMP functional bioassay
Chain of Melanocyte-stimulating hormone receptor (Q01727 whole entry): as the sequence (Q01727 whole entry, looked up) above

SMILES: C[C@@H]1NC(=O)C(CCCN)NC(=O)[C@H](Cc2ccccc2)NC(=O)[C@H](Cc2ccccc2)NC(=O)[C@H](CCCNC(=N)N)NC(=O)[C@@H]2CCCN2C(=O)[C@H]2CCCN2C(=O)[C@H](Cc2ccccc2)NC1=O (stereo not given in full)
Activity [1]: 30% | Ki [2]: 160 nM | Kb [2]: 158 nM

SMILES: CC(=O)N[C@H](C(=O)N[C@H]1CSSC[C@@H](C(=O)N[C@@H](CCCNC(=N)N)C(N)=O)NC(=O)[C@H](Cc2ccc(O)cc2)NC(=O)[C@H]2CSSC[C@H](NC(=O)[C@H](Cc3ccc(O)cc3)NC1=O)C(=O)N[C@@H](CCCNC(=N)N)C(=O)N[C@@H](Cc1ccccc1)C(=O)N[C@@H](Cc1ccccc1)C(=O)N[C@@H](CC(N)=O)C(=O)N[C@@H](C)C(=O)N[C@@H](Cc1ccccc1)C(=O)N2)[C@@H](C)O
Kb [2]: 631 nM

IC50 ([3]; hek293): Not Active
SMILES: CC(=O)N[C@H]1CSSC[C@@H](C(N)=O)NC(=O)[C@H](Cc2ccccc2)NC(=O)[C@H](C)NC(=O)[C@H](CC(N)=O)NC(=O)[C@H](Cc2ccccc2)NC(=O)[C@H](Cc2ccccc2)NC(=O)[C@H](CCCNC(=N)N)NC1=O

Kb [2]: 794 nM
SMILES: C[C@H](NC(=O)[C@H](Cc1ccc(O)cc1)NC(=O)[C@@H]1CSSC[C@H](NC(=O)[C@H](Cc2ccc(O)cc2)NC(=O)[C@H](C)NC(=O)[C@@H](N)[C@@H](C)O)C(=O)N[C@@H](CCCNC(=N)N)C(=O)N[C@@H](Cc2ccccc2)C(=O)N[C@@H](Cc2ccccc2)C(=O)N[C@@H](CC(N)=O)C(=O)N[C@@H](C)C(=O)N[C@@H](Cc2ccccc2)C(=O)N1)C(=O)N[C@@H](CCCNC(=N)N)C(N)=O (H-TAYCRFFNAFCYAR-NH2; disulfide 4-11)

SMILES: C[C@@H]1NC(=O)[C@H](CC(N)=O)NC(=O)[C@H](Cc2ccc3ccccc3c2)NC(=O)[C@H](Cc2ccccc2)NC(=O)[C@H](CCCNC(=N)N)NC(=O)[C@@H]2CCCN2C(=O)[C@H]2CCCN2C(=O)[C@H](Cc2ccccc2)NC1=O
EC50 ([4]; hek293): 19600 nM | Ki ([3]; hek293): 63 nM | pA2 ([3]; hek293): 7.2

SMILES: C[C@@H]1NC(=O)[C@H](CC(N)=O)NC(=O)[C@H](c2ccccc2)NC(=O)[C@H](Cc2ccccc2)NC(=O)[C@H](CCCNC(=N)N)NC(=O)[C@@H]2CCCN2C(=O)[C@H]2CCCN2C(=O)[C@H](Cc2ccccc2)NC1=O
EC50 ([4]; hek293): 21000 nM | Ki ([3]; hek293): 1300 nM | pA2 ([3]; hek293): 5.9

SMILES: C[C@@H]1NC(=O)[C@H](CC(N)=O)NC(=O)[C@H](Cc2ccccc2)NC(=O)[C@H](c2ccccc2)NC(=O)[C@H](CCCNC(=N)N)NC(=O)[C@@H]2CCCN2C(=O)[C@H]2CCCN2C(=O)[C@H](Cc2ccccc2)NC1=O
EC50 ([4]; hek293): 13600 nM

SMILES: C[C@@H]1NC(=O)[C@H](CC(N)=O)NC(=O)[C@H](Cc2ccccc2)NC(=O)[C@H](Cc2ccc3ccccc3c2)NC(=O)[C@H](CCCNC(=N)N)NC(=O)[C@@H]2CCCN2C(=O)[C@H]2CCCN2C(=O)[C@H](Cc2ccccc2)NC1=O
EC50 ([4]; hek293): 8800 nM | Ki ([3]; hek293): 100 nM | pA2 ([3]; hek293): 7

SMILES: C[C@@H]1NC(=O)[C@H](CC(N)=O)NC(=O)[C@H](Cc2cccc3ccccc23)NC(=O)[C@H](Cc2ccccc2)NC(=O)[C@H](CCCNC(=N)N)NC(=O)[C@@H]2CCCN2C(=O)[C@H]2CCCN2C(=O)[C@H](Cc2ccccc2)NC1=O
EC50 ([4]; hek293): 12700 nM | Ki ([3]; hek293): 16 nM | pA2 ([3]; hek293): 7.8

SMILES: C[C@@H]1NC(=O)[C@H](CC(N)=O)NC(=O)[C@H](CCc2ccccc2)NC(=O)[C@H](Cc2ccccc2)NC(=O)[C@H](CCCNC(=N)N)NC(=O)[C@@H]2CCCN2C(=O)[C@H]2CCCN2C(=O)[C@H](Cc2ccccc2)NC1=O
EC50 ([4]; hek293): 20300 nM

SMILES: C[C@@H]1NC(=O)[C@H](CC(N)=O)NC(=O)[C@H](Cc2ccccc2)NC(=O)[C@H](Cc2cccc3ccccc23)NC(=O)[C@H](CCCNC(=N)N)NC(=O)[C@@H]2CCCN2C(=O)[C@H]2CCCN2C(=O)[C@H](Cc2ccccc2)NC1=O (cyclo(R[1Nal]FNAF[dP]P))
EC50 ([4]; hek293): 2500 nM | Ki ([3]; hek293): 16 nM | pA2 ([3]; hek293): 7.8

SMILES: C[C@@H]1NC(=O)[C@H](CC(N)=O)NC(=O)C(Cc2cccc3ccccc23)NC(=O)[C@H](Cc2ccccc2)NC(=O)[C@H](CCCNC(=N)N)NC(=O)[C@@H]2CCCN2C(=O)[C@H]2CCCN2C(=O)[C@H](Cc2ccccc2)NC1=O (stereo not given in full)
Ki [2]: 2500 nM | Kb [2]: 2510 nM

EC50 [4]: 4500 nM
SMILES: C[C@@H]1NC(=O)[C@H](CC(N)=O)NC(=O)[C@H](Cc2ccccc2)NC(=O)[C@H](Cc2ccccc2)NC(=O)[C@H](CCCNC(=N)N)NC(=O)[C@@H]2CCCN2C(=O)[C@H]2CCCN2C(=O)[C@H](Cc2ccccc2)NC1=O

SMILES: C[C@@H]1NC(=O)C(CN)NC(=O)[C@H](Cc2ccccc2)NC(=O)[C@H](Cc2ccccc2)NC(=O)[C@H](CCCNC(=N)N)NC(=O)[C@@H]2CCCN2C(=O)[C@H]2CCCN2C(=O)[C@H](Cc2ccccc2)NC1=O (stereo not given in full)
Activity [1]: 75% | Ki [2]: 130 nM | Kb [2]: 126 nM

SMILES: C[C@@H]1NC(=O)[C@H](CC(N)=O)NC(=O)[C@H](Cc2ccccc2)NC(=O)[C@H](CCc2ccccc2)NC(=O)[C@H](CCCNC(=N)N)NC(=O)[C@@H]2CCCN2C(=O)[C@H]2CCCN2C(=O)[C@H](Cc2ccccc2)NC1=O
EC50 ([4]; hek293): 1500 nM | Ki ([3]; hek293): 100 nM | pA2 ([3]; hek293): 7

SMILES: CC(=O)N[C@H](C(=O)N[C@H]1CSSC[C@@H](C(=O)N[C@@H](CCCNC(=N)N)C(N)=O)NC(=O)[C@H](Cc2ccc(O)cc2)NC(=O)[C@@H]2CSSC[C@H](NC(=O)[C@H](Cc3ccc(O)cc3)NC1=O)C(=O)N[C@@H](CCCNC(=N)N)C(=O)N[C@@H](Cc1ccccc1)C(=O)N[C@@H](Cc1ccccc1)C(=O)N[C@@H](CC(N)=O)C(=O)N[C@@H](C)C(=O)N[C@@H](Cc1ccccc1)C(=O)N2)[C@@H](C)O
Kb [3]: 63.1 nM

SMILES: C[C@@H]1NC(=O)CNC(=O)[C@H](Cc2ccccc2)NC(=O)[C@H](Cc2ccccc2)NC(=O)[C@H](CCCNC(=N)N)NC(=O)[C@@H]2CCCN2C(=O)[C@H]2CCCN2C(=O)[C@H](Cc2ccccc2)NC1=O
Activity [1]: 50% | Ki [2]: 25 nM | Kb [2]: 25.1 nM | Ki [3]: 4 nM | Kb [3]: 3.98 nM

SMILES: C[C@@H]1NC(=O)[C@H](CC(N)=O)NC(=O)[C@H](Cc2ccccc2)NC(=O)[C@H](Cc2ccccc2)NC(=O)[C@H](CCCNC(=N)N)NC(=O)[C@H]([C@@H](C)O)NC(=O)[C@H](Cc2ccc(O)cc2)NC(=O)[C@@H]2CCCN2C(=O)[C@H]2CCCN2C(=O)[C@H](Cc2ccc(O)cc2)NC(=O)[C@H]([C@@H](C)O)NC(=O)[C@H](Cc2ccccc2)NC1=O (cyclo(YTRFFNAFTY[dP]P))
EC50 [4]: 11600 nM | Kb [2]: 1260 nM | Kb [3]: 158 nM

SMILES: C[C@@H]1NC(=O)[C@H](CC(N)=O)NC(=O)[C@H](Cc2ccc(-c3ccccc3)cc2)NC(=O)[C@H](Cc2ccccc2)NC(=O)[C@H](CCCNC(=N)N)NC(=O)[C@@H]2CCCN2C(=O)[C@H]2CCCN2C(=O)[C@H](Cc2ccccc2)NC1=O
EC50 [4]: 500 nM | Ki [3]: 160 nM | Kb [3]: 158 nM

EC50 [4]: 17600 nM
SMILES: C[C@@H]1NC(=O)[C@H](Cc2ccccc2)NC(=O)[C@H](C)NC(=O)[C@H](CC(N)=O)NC(=O)[C@H](Cc2ccccc2)NC(=O)[C@H](Cc2ccccc2)NC(=O)[C@H](CCCNC(=N)N)NC(=O)[C@H](C)NC(=O)[C@H](Cc2ccc(O)cc2)NC(=O)[C@@H]2CCCN2C(=O)[C@H]2CCCN2C(=O)[C@H](Cc2ccc(O)cc2)NC1=O

SMILES: C[C@@H]1NC(=O)[C@H](CC(N)=O)NC(=O)[C@H](Cc2ccccc2)NC(=O)C(Cc2ccc3ccccc3c2)NC(=O)[C@H](CCCNC(=N)N)NC(=O)[C@@H]2CCCN2C(=O)[C@H]2CCCN2C(=O)[C@H](Cc2ccccc2)NC1=O (stereo not given in full)
Ki [2]: 1000 nM | Kb [2]: 1000 nM

SMILES: C[C@@H]1NC(=O)[C@H](CCCCN)NC(=O)[C@H](Cc2ccccc2)NC(=O)[C@H](Cc2ccccc2)NC(=O)[C@H](CCCNC(=N)N)NC(=O)[C@@H]2CCCN2C(=O)[C@H]2CCCN2C(=O)[C@H](Cc2ccccc2)NC1=O
Ki [2]: 100 nM | Kb [2]: 100 nM | Ki [3]: 5 nM | Kb [3]: 5.01 nM

SMILES: C[C@@H]1NC(=O)[C@H](CC(N)=O)NC(=O)[C@H](Cc2ccccc2)NC(=O)[C@H](Cc2ccc(-c3ccccc3)cc2)NC(=O)[C@H](CCCNC(=N)N)NC(=O)[C@@H]2CCCN2C(=O)[C@H]2CCCN2C(=O)[C@H](Cc2ccccc2)NC1=O (cyclo(R[Bip]FNAF[dP]P))
EC50 [4]: 800 nM | Ki [2]: 630 nM | Kb [2]: 631 nM | Ki [3]: 160 nM | Kb [3]: 158 nM

SMILES: C[C@@H]1NC(=O)[C@H](CC(N)=O)NC(=O)[C@@H]2Cc3ccccc3CN2C(=O)[C@H](Cc2ccccc2)NC(=O)[C@H](CCCNC(=N)N)NC(=O)[C@@H]2CCCN2C(=O)[C@H]2CCCN2C(=O)[C@H](Cc2ccccc2)NC1=O
EC50 ([4]; hek293): 3900 nM

SMILES: C[C@@H]1NC(=O)C(CCN)NC(=O)[C@H](Cc2ccccc2)NC(=O)[C@H](Cc2ccccc2)NC(=O)[C@H](CCCNC(=N)N)NC(=O)[C@@H]2CCCN2C(=O)[C@H]2CCCN2C(=O)[C@H](Cc2ccccc2)NC1=O (stereo not given in full)
Activity [1]: 50% | Ki [2]: 100 nM | Kb [2]: 100 nM
